What all share (type): physicochemical
Series [1] is described as follows: Solubility studies, shake flask method with HPLC quantification. The conditions noted are these: 37° C., 200 rpm, about 15 minutes; for solubility: thermodynamic from solid, read-out: Solubility (Conc.). As to the method:
• Shake flask method was used to determine the solubility of compound in various bio-relevant media of different pH and quantification is done using HPLC method. II. Experimental:
Following bio-relevant media and water were selected to study the solubility behaviour. • i. FaSSIF (Fasted state simulated intestinal fluid) of pH 6.5 • ii. FeSSIF (Fed state simulated intestinal fluid) of pH 5.0 • iii. Water.
Procedure: Test substance (1 mg) was taken in a test tube and medium [FaSSIF (pH 6.5) or FeSSIF (pH 5.0) or water] was added in the increment of 1 ml with shaking. After completion of addition of 10 ml of media, test tubes containing sample solution were put on a mechanical shaker set at 37° C. and 200 rpm for shaking up to about 15 minutes. After shaking, the content of each flask, it was filtered through […] filter. The filtered solution was analysed using HPLC for quantification. A sample solution of 1 mg in 10 ml of DMSO was used as reference standard for quantifying dissolved test substance in each media. The solubility in each media is expressed as μg/ml (Table-10).

Series [2] can be described thus: Dissolution studies in suspension form. The following applies: suspension: 10 mg active, Kollidon VA 64 40 mg, SLS 20 mg, purified water; batches 1A, 2A, 3A. As to the method:
Suspension of compound of formula (II) and its salts with same composition was prepared using conventional homogenization technique. The % drug release was determined by comparing with 10 mg equivalent suspension (after sonication).

Series [3] is described as follows: Hygroscopicity study, moisture content by Karl Fischer method. The conditions noted are these: for moisture content, initial value: before exposure to humidity; for moisture content increase: 25° C., 48 hrs. The method, then: Hygroscopicity study was performed under the following conditions: The material was exposed to relative humidity (for example 60%, 80%, 90%) at 25° C. condition. The material was thinly spread in dried and pre-weighed Petri plate. The plate was exposed to the relative humidity conditions at 25° C. The Petri plate was withdrawn at regular intervals and weighed. Withdrawn samples were tested for description and moisture content by Karl Fischer method.

The nature of series [4]: Stability studies of salts under storage, degradation products by HPLC. An excerpt:
The salts of compound of formula II were stored under conditions as shown in Table 11 and a total amount of degradation products (related substances) and single maximum impurity formed during storage was estimated according to following protocol:
Apparatus: A High Performance Liquid Chromatograph equipped with quaternary gradient pumps, variable wavelength UV detector attached with data recorder and Integrator software or equivalent.
Column: Phenomenex Prodigy, 250 mm×4.6 mm, 5.0 or equivalent
Mobile phase: A: Buffer B: Acetonitrile (for sodium salt), acetonitrile:methanol (6:4) for potassium salt
Buffer: 0.1% Formic acid in water
Detection wavelength: UV 265 nm
Column temperature: 40° C.
10 mg of compound was weighed and transferred it into a 20 mL volumetric flask. Dimethylsulfoxide was added and it was sonicated to dissolve. The diluent was added to make up the solution to the mark of the flask.
The equal volumes of blank (diluent) and test solution were separately injected into the liquid chromatograph. The responses were recorded eliminating the peaks due to blank and the chromatographic purity by area was calculated by normalization method.
The salts of the compound of formula II were stored under conditions as shown in below table and a total amount of degradation products (related substances) as well as single maximum impurity formed during storage was estimated by HPLC. The material was packed in inner clear polythene bag under nitrogen lined with black polythene bag, covered with triple laminated aluminium bag placed in HDPE drum and subjected to the conditions mentioned in the table 11.

Where [5] appears, read: storage condition 1: 25 ± 2° C., 60 ± 5% RH, 0 months.
Setting [6] is: storage condition 1: 25 ± 2° C., 60 ± 5% RH, 1 month.
Where [7] appears, read: storage condition 1: 25 ± 2° C., 60 ± 5% RH, 2 months.
Setting [8] is: storage condition 1: 25 ± 2° C., 60 ± 5% RH, 3 months.
Setting [9] is: storage condition 1: 25 ± 2° C., 60 ± 5% RH, 6 months.
The mark [10] stands for this setting: storage condition 1: 25 ± 2° C., 60 ± 5% RH, 9 months.
[11] abbreviates: storage condition 2: 30 ± 2° C., 65 ± 5% RH, 0 months.
[12] abbreviates: storage condition 2: 30 ± 2° C., 65 ± 5% RH, 6 months.
[13] abbreviates: storage condition 3: 40 ± 2° C., 75 ± 5% RH, 0 months.
Setting [14] is: storage condition 3: 40 ± 2° C., 75 ± 5% RH, 1 month.
[15] abbreviates: storage condition 3: 40 ± 2° C., 75 ± 5% RH, 2 months.
The mark [16] stands for this setting: storage condition 3: 40 ± 2° C., 75 ± 5% RH, 3 months.
Setting [17] is: storage condition 3: 40 ± 2° C., 75 ± 5% RH, 6 months.
The mark [18] stands for this setting: storage condition 2: 30 ± 2° C., 65 ± 5% RH, 1 month.
The mark [19] stands for this setting: storage condition 2: 30 ± 2° C., 65 ± 5% RH, 2 months.
Where [20] appears, read: storage condition 2: 30 ± 2° C., 65 ± 5% RH, 3 months.

Converted amounts (≈) assume the structure as drawn. Like-named read-outs stand apart in the source and are kept apart here.

Broadly, the solubility is the dissolved amount per volume that the medium holds.

In the case of `Cn1c(=O)c2c(CC(=O)Nc3nc(-c4ccc(F)c(C(F)(F)F)c4F)cs3)csc2n(C)c1=O` [Compound (II), N-{4-[2,4-difluoro-3-(trifluoromethyl)phenyl]-1,3-thiazol-2-yl}-2-(1,3-dimethyl-2,4-dioxo-1,2,3,4-tetrahydrothieno[2,3-d]pyrimidin-5-yl)acetamide], the solubility in series [1] (FaSSIF (fasted state simulated intestinal fluid), FaSSIF (pH 6.5)) is 0.16 µg/mL (≈ 0.31 µM); in series [1] (FeSSIF (fed state simulated intestinal fluid), FeSSIF (pH 5.0)) it was 0.06 µg/mL (≈ 0.116 µM); in series [1] (Water) it was 0.1 µg/mL (≈ 0.194 µM). In addition, the “% drug release after 15 minutes” value in series [2] stood at 0.40%.

Regarding `Cn1c(=O)c2c(CC(=O)Nc3nc(-c4ccc(F)c(C(F)(F)F)c4F)cs3)csc2n(C)c1=O.[K]` [Potassium salt of N-{4-[2,4-difluoro-3-(trifluoromethyl)phenyl]-1,3-thiazol-2-yl}-2-(1,3-dimethyl-2,4-dioxo-1,2,3,4-tetrahydrothieno[2,3-d]pyrimidin-5-yl)acetamide in crystalline form], the “moisture content after gradual increase” value in series [3] (48 hrs at 25° C./60% RH) is listed as “about 3.5%”; in series [3] (48 hrs at 25° C./80% RH), “about 6.6%”; in series [3] (48 hrs at 25° C./90% RH), “about 16.0%”. The “moisture content, initial value” in series [3] is on record as “about 0.80%”.

On to `Cn1c(=O)c2c(CC(=O)Nc3nc(-c4ccc(F)c(C(F)(F)F)c4F)cs3)csc2n(C)c1=O.[K]` [Potassium salt of compound (II), potassium salt of N-{4-[2,4-difluoro-3-(trifluoromethyl)phenyl]-1,3-thiazol-2-yl}-2-(1,3-dimethyl-2,4-dioxo-1,2,3,4-tetrahydrothieno[2,3-d]pyrimidin-5-yl)acetamide], for which the “Solubility (Conc.)” value in series [1] (FaSSIF (pH 6.5)) stood at 5.91 µg/mL; in series [1] (FeSSIF (pH 5.0)) it was 5.53 µg/mL; in series [1] (Water), 0.49 µg/mL. The Related substances in series [4] (setting [5]) was 0.44%; in series [4] (setting [6]), 0.45%; in series [4] (setting [7]) it was 0.31%; in series [4] (setting [8]) it was 0.43%; in series [4] (setting [9]), 0.35%; in series [4] (setting [10]), 0.35%. Moreover, the Related substances in series [4] (setting [11]) is listed as 0.44%; in series [4] (setting [12]) it was 0.51%; in series [4] (setting [13]), 0.44%; in series [4] (setting [14]) it was 0.44%; in series [4] (setting [15]), 0.32%; in series [4] (setting [16]), 0.46%. In addition, the Related substances in series [4] (setting [17]) turned out to be 0.52%. The single max. impurity in series [4] (setting [5]) stood at 0.26%; in series [4] (setting [6]) it was 0.27%; in series [4] (setting [7]), 0.19%; in series [4] (setting [8]) it was 0.26%; in series [4] (setting [9]), 0.21%; in series [4] (setting [10]) it was 0.21%. In addition, the single max. impurity in series [4] (setting [11]) came to 0.26%; in series [4] (setting [12]), 0.31%; in series [4] (setting [13]) it was 0.26%; in series [4] (setting [14]), 0.27%; in series [4] (setting [15]), 0.20%; in series [4] (setting [16]), 0.28%. In addition, in series [4] (setting [17]), the single max. impurity came to 0.32%. Also, the “% drug release after 15 minutes” value in series [2] is 6.3%. The “moisture content after gradual increase” value in series [3] (48 hrs at 25° C./60% RH, listed as potassium salt of compound of formula (II)) was found to be 3.5%; in series [3] (48 hrs at 25° C./80% RH, listed as potassium salt of compound of formula (II)), 6.6%; in series [3] (48 hrs at 25° C./90% RH, listed as potassium salt of compound of formula (II)) it was 16.0%. Moreover, the “moisture content, initial value” in series [3] (listed as potassium salt of compound of formula (II)) was 0.80%. Also, the moisture content increase in series [3] (relative humidity of 60%) is recorded as no more than 2.7%; in series [3] (relative humidity of 80%), no more than 5.8%; in series [3] (relative humidity of 90%) it was no more than 15.2%.

With `Cn1c(=O)c2c(CC(=O)[N-]c3nc(-c4ccc(F)c(C(F)(F)F)c4F)cs3)csc2n(C)c1=O.[Na+]` [Sodium salt of compound (II)], the “Solubility (Conc.)” value is 1.07 µg/mL in series [1] (FaSSIF (pH 6.5)), 0.24 µg/mL in series [1] (FeSSIF (pH 5.0)) and 0.13 µg/mL in series [1] (Water). In addition, the Related substances in series [4] (setting [5]) is reported as 0.22%; in series [4] (setting [6]) it was 0.28%; in series [4] (setting [7]) it was 0.36%; in series [4] (setting [8]), 0.38%; in series [4] (setting [9]) it was 0.51%; in series [4] (setting [10]) it was 0.75%. The Related substances in series [4] (setting [11]) came to 0.22%; in series [4] (setting [18]), 0.30%; in series [4] (setting [19]), 0.40%; in series [4] (setting [20]), 0.47%; in series [4] (setting [12]), 0.71%; in series [4] (setting [13]), 0.22%. Also, the Related substances in series [4] (setting [14]) turned out to be 0.54%; in series [4] (setting [15]) it was 0.70%; in series [4] (setting [16]) it was 0.77%; in series [4] (setting [17]) it was 1.0%. In addition, the single max. impurity in series [4] (setting [5]) was 0.05%; in series [4] (setting [6]), 0.06%; in series [4] (setting [7]) it was 0.10%; in series [4] (setting [8]) it was 0.11%; in series [4] (setting [9]) it was 0.23%; in series [4] (setting [10]) it was 0.39%. The single max. impurity in series [4] (setting [11]) turned out to be 0.05%; in series [4] (setting [18]) it was 0.05%; in series [4] (setting [19]) it was 0.14%; in series [4] (setting [20]), 0.18%; in series [4] (setting [12]) it was 0.35%; in series [4] (setting [13]) it was 0.05%. Moreover, the single max. impurity in series [4] (setting [14]) worked out at 0.22%; in series [4] (setting [15]), 0.36%; in series [4] (setting [16]), 0.39%; in series [4] (setting [17]), 0.58%. In series [2], the “% drug release after 15 minutes” value was 1.2%.
